Source: PMC9506485, “Synthesis and Structure–Activity Relationships for the Anti-Mycobacterial Activity of 3-Phenyl-N-(Pyridin-2-ylmethyl)Pyrazolo[1,5-a]Pyrimidin-7-Amines” (Pharmaceuticals, 2022)
Values after ≈ are worked out from the molar mass of the structure shown.

How the values were obtained:
[1] = tested on: VERO green monkey kidney cells; assay: VERO mammalian cell toxicity assay; assay type: cell-based; conditions: Chlorocebus sabaeus; inhibition of growth of VERO green monkey kidney epithelial cells
[2] = Microsomal stability, human liver microsomes; assay type: in vitro ADME; conditions: pH 7.4; for microsomal CLint at 1 μM: human liver microsomes, read-out: HLM Clint(mic)
Experimental: (§1) Assays were performed by WuXi AppTec (Shanghai) Co., Ltd. The test compounds (Table 4) (at 1 μM) were incubated at 37 °C with liver microsomes from human or CD-1 mice in the presence of a NADPH regenerating system and phosphate buffer (100 mM, pH 7.4) at 0.5 mg/mL microsomal protein (the positive controls were testosterone, propafenone, and diclofenac). Samples were removed at time intervals of 0, 5, 10, 20, 30, and 60 min and immediately mixed with cold CH3CN (containing 0.1 μg/mL of tolbutamide as an internal standard) and then centrifuged prior to analysis by LCMS/MS.

[3] = target: hERG (Homo sapiens, UniProt Q12809); assay: hERG channel blockade, manual patch clamp; assay type: cell-based; conditions: cloned hERG potassium channels, room temperature
Experimental: Selected compounds were evaluated for hERG channel blockade (Table 4) by WuXi AppTec (Shanghai) Co., Ltd. This was carried out using cloned hERG potassium channels according to their standard manual patch clamp method. Two concentrations (0.3 and 1.0 µM) were tested (at room temperature), and at least three replicates were obtained for each. Amitryptyline was used as a standard.

[4] = tested on: Mycobacterium tuberculosis (strain H37Rv); assay: LORA minimum inhibitory concentration assay (low-oxygen/non-replicating); conditions: M.tb H37Rv, 90% inhibition of growth
[5] = tested on: Mycobacterium tuberculosis (strain H37Rv); assay: MABA minimum inhibitory concentration assay (aerobic/replicating); assay type: cell-based; conditions: M.tb H37Rv; for MIC90: Mycobacterium tuberculosis, aerobic/replicating, 90% inhibition of growth; for anti-mycobacterial activity in words: MABA/LORA
[6] = Microsomal stability, mouse liver microsomes; assay type: in vitro ADME; conditions: for CLint scaled at 1 μM / half-life at 1 μM: CD-1, mouse, microsomes, pH 7.4; for microsomal CLint at 1 μM: CD-1, pH 7.4, mouse liver microsomes, read-out: MLM Clint(mic)
Experimental: as §1

Chain of hERG (Q12809 whole entry): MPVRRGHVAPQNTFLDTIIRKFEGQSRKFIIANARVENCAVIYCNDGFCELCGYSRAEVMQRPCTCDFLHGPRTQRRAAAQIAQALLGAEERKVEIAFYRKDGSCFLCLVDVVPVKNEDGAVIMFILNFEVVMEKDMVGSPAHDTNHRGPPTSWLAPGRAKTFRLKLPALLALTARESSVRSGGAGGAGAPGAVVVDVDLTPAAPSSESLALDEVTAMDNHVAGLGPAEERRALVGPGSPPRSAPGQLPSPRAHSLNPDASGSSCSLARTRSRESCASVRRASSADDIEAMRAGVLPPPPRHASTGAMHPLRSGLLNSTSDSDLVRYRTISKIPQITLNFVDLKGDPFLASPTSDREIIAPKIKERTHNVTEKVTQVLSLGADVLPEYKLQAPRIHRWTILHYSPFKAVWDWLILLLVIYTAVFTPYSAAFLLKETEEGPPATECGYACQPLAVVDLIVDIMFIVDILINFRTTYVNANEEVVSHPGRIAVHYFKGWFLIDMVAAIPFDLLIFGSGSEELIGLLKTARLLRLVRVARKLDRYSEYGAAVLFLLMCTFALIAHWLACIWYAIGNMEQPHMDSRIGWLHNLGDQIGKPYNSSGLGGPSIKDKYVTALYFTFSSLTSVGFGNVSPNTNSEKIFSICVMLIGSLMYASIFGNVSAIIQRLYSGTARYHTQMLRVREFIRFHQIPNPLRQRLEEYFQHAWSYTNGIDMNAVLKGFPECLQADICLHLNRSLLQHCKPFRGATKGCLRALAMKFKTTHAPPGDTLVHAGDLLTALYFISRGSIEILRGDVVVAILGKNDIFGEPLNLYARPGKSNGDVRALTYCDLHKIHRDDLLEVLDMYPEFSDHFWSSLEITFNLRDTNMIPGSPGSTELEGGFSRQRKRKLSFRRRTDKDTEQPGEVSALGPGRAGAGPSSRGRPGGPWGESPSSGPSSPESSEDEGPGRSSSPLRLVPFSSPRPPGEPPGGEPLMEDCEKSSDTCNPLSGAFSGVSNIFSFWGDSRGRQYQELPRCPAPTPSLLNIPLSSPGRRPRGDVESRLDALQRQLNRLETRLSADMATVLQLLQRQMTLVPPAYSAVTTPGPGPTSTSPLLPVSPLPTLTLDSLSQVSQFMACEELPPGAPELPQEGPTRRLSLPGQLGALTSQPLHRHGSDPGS

SMILES | IC50 [1] | CLint scaled at 1 μM ([2]; human, microsomes) | half-life at 1 μM ([2]; human, microsomes) | microsomal CLint at 1 μM [2] | half-life at 1 μM ([2]; human/mouse liver microsomes not distinguished, read-out: T½ values (microsomal stability)) | inhibition at 0.3 µM ([3]; 0.3 µM, read-out: hERG % inhib. at 0.3 µM) | inhibition at 1 µM ([3]; 1.0 µM, read-out: hERG % inhib. at 1.0 µM) | MIC90 LORA [4] | MIC90 [5] | CLint scaled at 1 μM [6] | half-life at 1 μM [6] | microsomal CLint at 1 μM [6] | melting point | anti-mycobacterial activity in words [5]
Fc1ccc(-c2cnn3c(NCc4ccccn4)cc(-c4cccs4)nc23)cc1 [Compound 41, 3-(4-Fluorophenyl)-N-(pyridin-2-ylmethyl)-5-(thiophen-2-yl)pyrazolo[1,5-a]pyrimidin-7-amine] | > 32 µg/mL | 75 mL/min/kg | 0.283 h | 83 µL/min/mg | < 1.42 h | 0% | 0% | 0.36 µg/mL (≈ 0.897 µM) | 0.99 µg/mL (≈ 2.47 µM) | 163 mL/min/kg | 0.567 h | 41 µL/min/mg |  | 
Fc1ccc(-c2cnn3c(NCc4cccc(F)n4)cc(-c4ccccc4)nc23)cc1 [Compound 45, 3-(4-Fluorophenyl)-N-((6-fluoropyridin-2-yl)methyl)-5-phenylpyrazolo[1,5-a]pyrimidin-7-amine] | > 32 µg/mL |  |  |  |  |  |  | >32 µg/mL | > 32 µg/mL |  |  |  | 196 to 198 °C | 
N#Cc1ccnc(CNc2cc(-c3ccccc3)nc3c(-c4ccc(F)cc4)cnn23)c1 [Compound 61, 2-(((3-(4-Fluorophenyl)-5-phenylpyrazolo[1,5-a]pyrimidin-7-yl)amino)methyl)isonicotinonitrile] | > 32 µg/mL |  |  |  |  |  |  | >32 µg/mL | > 32 µg/mL |  |  |  | 233 to 236 °C | inactive
CN(C)c1cccnc1CNc1cc(-c2ccccc2)nc2c(-c3ccc(F)cc3)cnn12 [Compound 69, N-((3-(Dimethylamino)pyridin-2-yl)methyl)-3-(4-fluorophenyl)-5-phenylpyrazolo[1,5-a]pyrimidin-7-amine] | > 32 µg/mL |  |  |  |  |  |  | 0.49 µg/mL (≈ 1.12 µM) | 1.5 µg/mL (≈ 3.42 µM) |  |  |  | 167 to 170 °C | 
Fc1ccc(-c2cnn3c(NCc4cccc(N5CCCCC5)n4)cc(-c4ccccc4)nc23)cc1 [Compound 50, 3-(4-Fluorophenyl)-5-phenyl-N-((6-(piperidin-1-yl)pyridin-2-yl)methyl)pyrazolo[1,5-a]pyrimidin-7-amine] | > 32 µg/mL |  |  |  |  |  |  | 1.75 µg/mL (≈ 3.66 µM) | 0.25 µg/mL (≈ 0.522 µM) |  |  |  | 185 to 187 °C | 
CN(C)CCN(C)c1ccnc(CNc2cc(-c3ccccc3)nc3c(-c4ccc(F)cc4)cnn23)c1 [Compound 67, N1-(2-(((3-(4-Fluorophenyl)-5-phenylpyrazolo[1,5-a]pyrimidin-7-yl)amino)methyl)pyridin-4-yl)-N1,N2,N2-trimethylethane-1,2-diamine] | 9.9 µg/mL (≈ 20 µM) |  |  |  |  |  |  | 1.5 µg/mL (≈ 3.03 µM) | 1.7 µg/mL (≈ 3.43 µM) |  |  |  | 158 to 160 °C | 
FC(F)(F)c1ccccc1-c1cnn2c(NCc3ccccn3)cc(-c3ccccc3)nc12 [Compound 13, 5-Phenyl-N-(pyridin-2-ylmethyl)-3-(2-(trifluoromethyl)phenyl)pyrazolo[1,5-a]pyrimidin-7-amine] | > 32 µg/mL |  |  |  |  |  |  | >32 µg/mL | > 32 µg/mL |  |  |  | 166 to 168 °C | 
Cc1cccc(CNc2cc(-c3ccccc3)nc3c(-c4ccc(F)cc4)cnn23)n1 [Compound 47, 3-(4-Fluorophenyl)-N-((6-methylpyridin-2-yl)methyl)-5-phenylpyrazolo[1,5-a]pyrimidin-7-amine] | > 32 µg/mL |  |  |  |  |  |  | >32 µg/mL | > 32 µg/mL |  |  |  | 177 to 180 °C | 
Cc1ccnc(CNc2cc(-c3ccccc3)nc3c(-c4ccc(F)cc4)cnn23)c1 [Compound 62, 3-(4-Fluorophenyl)-N-((4-methylpyridin-2-yl)methyl)-5-phenylpyrazolo[1,5-a]pyrimidin-7-amine] | > 32 µg/mL | < 8.6 mL/min/kg | > 2.42 h | < 9.6 µL/min/mg |  |  |  | 0.5 µg/mL (≈ 1.22 µM) | 1.8 µg/mL (≈ 4.4 µM) | < 38 mL/min/kg | > 2.42 h | < 9.6 µL/min/mg | 157 to 159 °C | 
Fc1ccccc1-c1cnn2c(NCc3ccccn3)cc(-c3ccccc3)nc12 [Compound 11, 3-(2-Fluorophenyl)-5-phenyl-N-(pyridin-2-ylmethyl)pyrazolo[1,5-a]pyrimidin-7-amine] | > 32 µg/mL |  |  |  |  |  |  | >32 µg/mL | > 32 µg/mL |  |  |  | 176 to 178 °C | 
Fc1ccc(-c2cnn3c(NCc4cc(N5CCOCC5)ccn4)cc(-c4ccccc4)nc23)cc1 [Compound 66, 3-(4-Fluorophenyl)-N-((4-morpholinopyridin-2-yl)methyl)-5-phenylpyrazolo[1,5-a]pyrimidin-7-amine] | > 32 µg/mL |  |  |  |  |  |  | 0.98 µg/mL (≈ 2.04 µM) | 0.06 µg/mL (≈ 0.125 µM) |  |  |  | 208 °C | 
COc1ccc(CNc2cc(-c3ccccc3)nc3c(-c4ccc(F)cc4)cnn23)nc1 [Compound 54, 3-(4-Fluorophenyl)-N-((5-methoxypyridin-2-yl)methyl)-5-phenylpyrazolo[1,5-a]pyrimidin-7-amine] | > 32 µg/mL | < 8.6 mL/min/kg | > 2.42 h | < 9.6 µL/min/mg |  |  |  | 1.3 µg/mL (≈ 3.06 µM) | 3.6 µg/mL (≈ 8.46 µM) | < 38 mL/min/kg | > 2.42 h | < 9.6 µL/min/mg | 212 to 214 °C | 
Fc1ccc(-c2cnn3c(NCc4ncccc4Br)cc(-c4ccccc4)nc23)cc1 [Compound 71, N-((3-Bromopyridin-2-yl)methyl)-3-(4-fluorophenyl)-5-phenylpyrazolo[1,5-a]pyrimidin-7-amine] | > 32 µg/mL |  |  |  |  |  |  | >32 µg/mL | > 32 µg/mL |  |  |  | 189 to 191 °C | 
CN(C)c1cccc(CNc2cc(-c3ccccc3)nc3c(-c4ccc(F)cc4)cnn23)n1 [Compound 49, N-((6-(Dimethylamino)pyridin-2-yl)methyl)-3-(4-fluorophenyl)-5-phenylpyrazolo[1,5-a]pyrimidin-7-amine] | > 32 µg/mL |  |  |  |  |  |  | 0.40 µg/mL (≈ 0.912 µM) | 1.39 µg/mL (≈ 3.17 µM) |  |  |  | 151 to 153 °C | 
CCc1cc(NCc2ccccn2)n2ncc(-c3ccc(F)cc3)c2n1 [Compound 23, 5-Ethyl-3-(4-fluorophenyl)-N-(pyridin-2-ylmethyl)pyrazolo[1,5-a]pyrimidin-7-amine] | 14.1 µg/mL (≈ 40.6 µM) |  |  |  |  |  |  | 0.45 µg/mL (≈ 1.3 µM) | 1.4 µg/mL (≈ 4.03 µM) |  |  |  | 137 to 138 °C | 
FC(F)(F)c1ccc(-c2cnn3c(NCc4ccccn4)cc(-c4ccccc4)nc23)cc1 [Compound 21, 5-Phenyl-N-(pyridin-2-ylmethyl)-3-(4-(trifluoromethyl)phenyl)pyrazolo[1,5-a]pyrimidin-7-amine] | > 32 µg/mL |  |  |  |  |  |  | >32 µg/mL | > 32 µg/mL |  |  |  | 188 to 190 °C | inactive
COc1cccc(CNc2cc(-c3ccccc3)nc3c(-c4ccc(F)cc4)cnn23)n1 [Compound 48, 3-(4-Fluorophenyl)-N-((6-methoxypyridin-2-yl)methyl)-5-phenylpyrazolo[1,5-a]pyrimidin-7-amine] | > 32 µg/mL |  |  |  |  |  |  | >32 µg/mL | > 32 µg/mL |  |  |  | 163 to 165 °C | 
Fc1cccc(-c2cnn3c(NCc4ccccn4)cc(-c4ccccc4)nc23)c1 [Compound 14, 3-(3-Fluorophenyl)-5-phenyl-N-(pyridin-2-ylmethyl)pyrazolo[1,5-a]pyrimidin-7-amine] | > 32 µg/mL |  |  |  |  |  |  | >32 µg/mL | > 32 µg/mL |  |  |  | 170 to 172 °C | 
Fc1ccc(-c2cnn3c(NCc4cccc(Br)n4)cc(-c4ccccc4)nc23)cc1 [Compound 46, N-((6-Bromopyridin-2-yl)methyl)-3-(4-fluorophenyl)-5-phenylpyrazolo[1,5-a]pyrimidin-7-amine] | > 32 µg/mL |  |  |  |  |  |  | >32 µg/mL | > 32 µg/mL |  |  |  | 160 to 161 °C | 
CN1CCN(c2ccnc(CNc3cc(-c4ccccc4)nc4c(-c5ccc(F)cc5)cnn34)c2)CC1 [Compound 65, 3-(4-Fluorophenyl)-N-((4-(4-methylpiperazin-1-yl)pyridin-2-yl)methyl)-5-phenylpyrazolo[1,5-a]pyrimidin-7-amine] | 10.7 µg/mL (≈ 21.7 µM) |  |  |  |  |  |  | 0.73 µg/mL (≈ 1.48 µM) | 0.09 µg/mL (≈ 0.182 µM) |  |  |  | 203 to 205 °C | 
Fc1ccc(-c2cnn3c(NCc4ncccc4F)cc(-c4ccccc4)nc23)cc1 [Compound 70, 3-(4-Fluorophenyl)-N-((3-fluoropyridin-2-yl)methyl)-5-phenylpyrazolo[1,5-a]pyrimidin-7-amine] | > 32 µg/mL |  |  |  |  |  |  | >32 µg/mL | > 32 µg/mL |  |  |  | 165 to 168 °C | 
